Measurements published in patent US20230104936A1, “TRPML MODULATORS” (Casma Therapeutics, Inc., priority 2019, published 2023).

System: TFEB
Test: TFEB nuclear translocation assay, HeLa wt cells
Type: cell-based
Details: Homo sapiens, HeLa, 2 h, 2 hrs compound treatment, Table 1 does not say HeLa wt or TRPML1 KO
Method: For the TFEB nuclear translocation assay, HeLa wt or HeLa TRPML1 KO cells were plated at 2700 cells/well into black-walled, 384-well Cell carrier Ultra tissue culture treated plates in complete media and incubated overnight. The next day, cells are treated for 2 hrs with compounds and incubated at 37° C. Cells were then fixed for 30 minutes at room temperature in 4% final PFA and washed five times with 90 μL PBS. PBS is aspirated from the wells and the cells are blocked with 7.5 μL blocking buffer (1:1 PBS/Odyssey block buffer containing 0.1% triton x-100 and 1% goat serum). After 30-60 minutes of block, 7.5 μL of primary anti-TFEB (rabbit) antibody is added for a final dilution of 1:200 antibody in 15 μL blocking buffer. Plates are incubated overnight at 4° C. The following day, plates are washed again into PBS, 90 μL with 5 washes, all PBS is aspirated from the wells and the cells are incubated for 1 hr in 1:1000 goat-anti rabbit Alexa 488 secondary antibody, also containing 10 μg/mL Hoechst 33342. After the 1 hr room temperature incubation, plates are washed a final time into PBS, sealed with foil and imaged with an automated epifluorescence microscopy (PerkinElmer Operetta CLS). Four different fields were imaged per well using ×20 magnification for DAPI and FITC filter sets. Images were quantified using PerkinElmer Harmony software, briefly: apply flatfield correction (basic/advanced) for input images. Use the Find Nuclei building block with channel set at Hoechst to find the nuclei. Use the Find cytoplasm building block with channel set to Alexa 488 to find the cytoplasm. Use select cell region with Channel set at Alexa 488 and region of interest as Nuclei and define outer border at 0 μm and inner at 45 μm to cover complete nuclei. Use select cell region with Channel set at Alexa 488 and region of interest as ring region and define outer border at −5 μm and inner at 0 μm to define a ring around the nucleus. Use the find calculate intensity parameter to calculate intensity of the nuclear region and the ring region. Define results as Number of nuclei and ratio of A/B where A is Intensity of Nuclei and B is intensity of the ring region.
The compound numbers correspond to the compound numbers above in Tables A or B. Compounds having an activity designated as “++++” provided an AC50 of ≤2.00 μM; compounds having an activity designated as “+++” provided an AC50 of 2.01-8.00 μM; compounds having an activity designated as “++” provided an AC50 of 8.01-9.99 μM; and compounds having an activity designated as “+” provided an AC50 of ≥10.00 μM.

Row | Structure (SMILES) | AC50 [nM]
1 | CC1(C)CC2(CCN(c3ccccc3NS(=O)(=O)c3ccc(C(F)F)cc3)CC2)CO1 [Compound A-671, 4-(difluoromethyl)-N-(2-{3,3-dimethyl-2-oxa-8-azaspiro[4.5]decan-8-yl}phenyl)benzene-1-sulfonamide] | ≤ 2000
2 | CN(C)S(=O)(=O)c1ccc(S(=O)(=O)Nc2ccccc2N2CCN(C(=O)C3(F)CC3)CC2)cc1 [Compound A-461, N4-{2-[4-(1-fluorocyclopropanecarbonyl)piperazin-1-yl]phenyl}-N1,N1-dimethylbenzene-1,4-disulfonamide] | 2010 to 8000
3 | O=S(=O)(Nc1cc(Cl)ccc1N1CCOC2(CCOCC2)C1)c1ccc2c(c1)CCC2 [Compound A-343, N-(5-chloro-2-{1,9-dioxa-4-azaspiro[5.5]undecan-4-yl}phenyl)-2,3-dihydro-1H-indene-5-sulfonamide] | 2010 to 8000
4 | CS(=O)(=O)c1ccc(S(=O)(=O)Nc2ccccc2N2CCC(O)(c3ccc(F)cc3)CC2)cc1 [Compound A-203, N-{2-[4-(4-fluorophenyl)-4-hydroxypiperidin-1-yl]phenyl}-4-methanesulfonylbenzene-1-sulfonamide] | 2010 to 8000
5 | COCC1(C)CCN(c2ccccc2NS(=O)(=O)Cc2cccc(C(C)(C)C)c2)CC1 [Compound A-627, 1-(3-tert-butylphenyl)-N-{2-[4-(methoxymethyl)-4-methylpiperidin-1-yl]phenyl}methanesulfonamide] | 2010 to 8000
6 | Cc1ccc(CS(=O)(=O)Nc2ccccc2N2CCN(C(=O)C(C)(C)C)CC2)cc1C [Compound A-486, 1-(3,4-dimethylphenyl)-N-{2-[4-(2,2-dimethylpropanoyl)piperazin-1-yl]phenyl}methanesulfonamide] | 2010 to 8000
7 | CN(C)S(=O)(=O)c1ccc(S(=O)(=O)Nc2ccccc2N2CCN(C3CCCOC3)CC2)cc1 (stereo not shown) [Compound A-450, N1,N1-dimethyl-N4-{2-[4-(oxan-3-yl)piperazin-1-yl]phenyl}benzene-1,4-disulfonamide] | 8010 to 9990
8 | Cc1nc(N2CCN(c3ccc(Cl)cc3F)CC2=O)cn1S(=O)(=O)c1ccc(S(=O)(=O)N(C)C)cc1 [Compound A-89, 4-((4-(4-(4-chloro-2-fluorophenyl)-2-oxopiperazin-1-yl)-2-methyl-1H-imidazol-1-yl)sulfonyl)-N,N-dimethylbenzenesulfonamide] | ≤ 2000
9 | Cc1ccc(S(=O)(=O)Nc2cccc(F)c2N2CCC(CN3C4CCC3COC4)CC2)cc1 [Compound A-881, N-{3-fluoro-2-[4-({3-oxa-8-azabicyclo[3.2.1]octan-8-yl}methyl)piperidin-1-yl]phenyl}-4-methylbenzene-1-sulfonamide] | ≤ 2000
10 | CN(C)S(=O)(=O)c1ccc(S(=O)(=O)Nc2ccccc2N2CCC(O)(c3ccc(F)cn3)CC2)cc1 [Compound A-209, N4-{2-[4-(5-fluoropyridin-2-yl)-4-hydroxypiperidin-1-yl]phenyl}-N1,N1-dimethylbenzene-1,4-disulfonamide] | ≤ 2000
11 | CN(C)S(=O)(=O)c1ccc(S(=O)(=O)Nc2cccc(F)c2N2CCC(C)(C(F)F)CC2)cc1 [Compound A-830, N4-{2-[4-(difluoromethyl)-4-methylpiperidin-1-yl]-3-fluorophenyl}-N1,N1-dimethylbenzene-1,4-disulfonamide] | ≤ 2000
12 | CN(C)S(=O)(=O)c1ccc(S(=O)(=O)Nc2cccc(F)c2N2CCC3(CCN3)CC2)cc1 [Compound A-816, N4-(2-{1,7-diazaspiro[3.5]nonan-7-yl}-3-fluorophenyl)-N1,N1-dimethylbenzene-1,4-disulfonamide] | ≥ 10000
13 | CN(C)S(=O)(=O)c1ccc(S(=O)(=O)Nc2ccccc2N2CCCN(C(=O)C(C)(C)C)CC2)cc1 [Compound A-480, N4-{2-[4-(2,2-dimethylpropanoyl)-1,4-diazepan-1-yl]phenyl}-N1,N1-dimethylbenzene-1,4-disulfonamide] | 2010 to 8000
14 | CN(C)S(=O)(=O)c1ccc(S(=O)(=O)Nc2ccccc2N2CCC(c3cnn(C)c3)CC2)cc1 [Compound A-60, N1,N1-dimethyl-N4-{2-[4-(1-methyl-1H-pyrazol-4-yl)piperidin-1-yl]phenyl}benzene-1,4-disulfonamide] | 2010 to 8000
15 | CC(=O)N1CCC(S(=O)(=O)Nc2ccccc2N2CCN(c3ccc(Cl)cc3F)CC2)CC1 [Compound A-17, 1-acetyl-N-{2-[4-(4-chloro-2-fluorophenyl)piperazin-1-yl]phenyl}piperidine-4-sulfonamide] | 2010 to 8000
16 | CN(C)S(=O)(=O)c1ccc(S(=O)(=O)Nc2ccccc2N2CCN(C34CC(C3)C4)CC2)cc1 [Compound A-179, N4-[2-(4-{bicyclo[1.1.1]pentan-1-yl}piperazin-1-yl)phenyl]-N1,N1-dimethylbenzene-1,4-disulfonamide] | ≤ 2000
17 | C[C@@H]1CN(c2nn(S(=O)(=O)c3ccc(S(=O)(=O)N(C)C)cc3)c3ccccc23)C[C@H](C)C1F (stereo partly drawn) [Compound A-969, 4-({3-[(3R,5S)-4-fluoro-3,5-dimethylpiperidin-1-yl]-1H-indazol-1-yl}sulfonyl)-N,N-dimethylbenzene-1-sulfonamide] | ≤ 2000
18 | CN(C)C(=O)c1ccc(S(=O)(=O)Nc2ccccc2N2CCC(c3ccc(Cl)cc3F)CC2)cc1 [Compound A-44, 4-({2-[4-(4-chloro-2-fluorophenyl)piperidin-1-yl]phenyl}sulfamoyl)-N,N-dimethylbenzamide] | ≤ 2000
19 | CS(=O)(=O)c1ccc(S(=O)(=O)Nc2cc(F)ccc2N2CCC(c3c(F)cccc3F)CC2)cc1 [Compound A-154, N-{2-[4-(2,6-difluorophenyl)piperidin-1-yl]-5-fluorophenyl}-4-methanesulfonylbenzene-1-sulfonamide] | ≤ 2000
20 | O=S(=O)(Nc1cc(Cl)ccc1N1CC2(CCC2)C1C1CCCO1)c1ccc2c(c1)CCC2 (stereo not shown) [Compound A-397, N-{5-chloro-2-[1-(oxolan-2-yl)-2-azaspiro[3.3]heptan-2-yl]phenyl}-2,3-dihydro-1H-indene-5-sulfonamide] | 2010 to 8000
21 | CC1(C)CC2(CCN(c3ccccc3NS(=O)(=O)c3cccc(C4CC4)c3)CC2)CO1 [Compound A-669, 3-cyclopropyl-N-(2-{3,3-dimethyl-2-oxa-8-azaspiro[4.5]decan-8-yl}phenyl)benzene-1-sulfonamide] | ≤ 2000
22 | COCC1(C)CCN(c2ccccc2CS(=O)(=O)c2ccc(S(=O)(=O)N(C)C)cc2)CC1 [Compound A-493, 4-({2-[4-(methoxymethyl)-4-methylpiperidin-1-yl]phenyl}methanesulfonyl)-N,N-dimethylbenzene-1-sulfonamide] | ≤ 2000
23 | O=S(=O)(CCO)c1ccc(S(=O)(=O)Nc2ccccc2N2CCC(c3ccc(Cl)cc3F)CC2)cc1 [Compound A-637, N-{2-[4-(4-chloro-2-fluorophenyl)piperidin-1-yl]phenyl}-4-(2-hydroxyethanesulfonyl)benzene-1-sulfonamide] | ≥ 10000
24 | CN(C)S(=O)(=O)c1ccc(S(=O)(=O)N2CCN(C3CCN(c4ccc(Cl)cc4F)CC3)C2=O)cc1 [Compound A-86, 4-((3-(1-(4-chloro-2-fluorophenyl)piperidin-4-yl)-2-oxoimidazolidin-1-yl)sulfonyl)-N,N-dimethylbenzenesulfonamide] | ≥ 10000
25 | CC(c1cccnc1)N1CCN(c2ccccc2NS(=O)(=O)c2ccc(S(=O)(=O)N(C)C)cc2)CC1 (stereo not shown) [Compound A-505, N1,N1-dimethyl-N4-(2-{4-[1-(pyridin-3-yl)ethyl]piperazin-1-yl}phenyl)benzene-1,4-disulfonamide] | 2010 to 8000
26 | COCC1(C)CCN(c2c(NS(=O)(=O)c3ccc(S(=O)(=O)N(C)C)cc3)ccc3nccn23)CC1 [Compound A-813, N4-{5-[4-(methoxymethyl)-4-methylpiperidin-1-yl]imidazo[1,2-a]pyridin-6-yl}-N1,N1-dimethylbenzene-1,4-disulfonamide] | ≥ 10000
27 | CN(C)S(=N)(=O)c1ccc(S(=O)(=O)Nc2ccc(F)cc2N2CCC(c3c(F)cccc3F)CC2)cc1 (stereo not shown) [Compound A-226, 4-({2-[4-(2,6-difluorophenyl)piperidin-1-yl]-4-fluorophenyl}sulfamoyl)-N,N-dimethylbenzene-1-sulfonoimidamide] | ≤ 2000
28 | CN1c2ccccc2N(S(=O)(=O)c2ccc(S(=O)(=O)N(C)C)cc2)CC1c1ccc(Cl)cc1F (stereo not shown) [Compound A-146, 4-{[3-(4-chloro-2-fluorophenyl)-4-methyl-1,2,3,4-tetrahydroquinoxalin-1-yl]sulfonyl}-N,N-dimethylbenzene-1-sulfonamide] | ≤ 2000
